Holding throughout (format): cell-based, mouse
The subject of test [1] is β-galactosidase in CMV-LacZ C2C12 myotubes. As to the kind of experiment: CMV-LacZ secondary screen in C2C12 myotubes (β-Gal stabilizing assay). Conditions: for CMV-LACZ in Myotubes, signal relative to DMSO: C2C12 CMV-LacZ myotubes, fold relative to DMSO; for CMV-LACZ in Myotubes, value relative to DMSO: SU9516 analogs, C2C12 CMV-LacZ, N=2. In a few lines: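 β-Gal level was the read-out, measured in a clonal C2C12 line expressing LacZ from a CMV promoter. Dose-response curves used six concentrations, 0.5 μM up to 40 μM, with duplicate points.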

For test [2], the system named is β-galactosidase in CMV-LacZ C2C12 myoblasts. As to the kind of experiment: CMV-LacZ secondary screen in C2C12 myoblasts (β-Gal stabilizing assay). The note with it: for CMV-LACZ in Myoblasts (β-galactosidase activity relative to DMSO): CMV-LacZ C2C12 myoblasts; for CMV-LACZ in Myoblasts, value relative to DMSO: SU9516 analogs, C2C12 CMV-LacZ, N=2. In a few lines: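 C2C12 myoblasts stably carrying a linearized CMV-driven LacZ construct, clone chosen by β-gal level in the myoblast FDG assay. Compounds tested in 96-well dose-response at 0.5, 1, 5, 10, 20 and 40 μM, N=2 replicates per point, to detect β-gal stabilization.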

Test [3] concerns α7 integrin (LacZ reporter in α7βgal+/− myoblasts). As to the kind of experiment: Myoblast α7+/LacZ integrin FDG assay (Burkin assay in myoblasts, 96-well). Conditions: 96-well; for Burkin Assay in Myoblasts, signal relative to DMSO: α7+/LacZ myoblasts; for Burkin Assay in Myoblasts, value relative to DMSO: SU9516 analogs, N=3-6.
The test system of test [4] is α7 integrin (LacZ reporter in α7+/LacZ myotubes). As to the kind of experiment: Myotube α7 integrin FDG assay (Burkin assay in myotubes, 96-well). Conditions: for Burkin Assay in Myotubes, value relative to DMSO: SU9516 analogs, 96-well, N=3-6.

`O=c1[nH]c(SCc2ccc(Cl)cc2)nc2ccsc12` [MLS000755214-01]: the “CMV-LACZ in Myotubes, signal relative to DMSO” value in test [1] (0.5 uM) is 0.9543; in test [1] (1 uM), 0.8600; in test [1] (5 uM) it was 1.0763; in test [1] (10 uM), 1.0591; in test [1] (20 uM) it was 0.9280; in test [1] (40 uM) it was 1.0190. Besides, the “CMV-LACZ in Myoblasts (β-galactosidase activity relative to DMSO)” value worked out at 1.0190 in test [2] (0.5 uM); 1.1650 in test [2] (1 uM); 0.9281 in test [2] (5 uM); 1.0994 in test [2] (10 uM); 1.0835 in test [2] (20 uM); 0.8172 in test [2] (40 uM). Besides, the “Burkin Assay in Myoblasts, signal relative to DMSO” value in test [3] (0.5 uM) turned out to be 1.077; in test [3] (1 uM), 1.021; in test [3] (5 uM), 0.9757; in test [3] (10 uM), 0.9635; in test [3] (20 uM), 0.8448; in test [3] (40 uM), 0.861. The “Burkin Assay in Myotubes, α7 integrin LacZ reporter signal relative to DMSO” value in test [4] (0.5 uM) is listed as 1.01; in test [4] (1 uM), 0.9661; in test [4] (5 uM), 0.9321; in test [4] (10 uM), 1.0353; in test [4] (20 uM) it was 0.9655; in test [4] (40 uM), 0.8312.

For `CCOc1cc2c3c(c1)C(C)=CC(C)(C)N3C(=O)C2=O` [MLS000710233-01], the “CMV-LACZ in Myotubes, value relative to DMSO” value in test [1] (0.5 uM) is listed as 0.8781; in test [1] (1 uM) it was 0.9410; in test [1] (5 uM), 0.9060; in test [1] (10 uM), 1.0698; in test [1] (20 uM) it was 1.1130; in test [1] (40 uM), 1.1380. Besides, the “CMV-LACZ in Myoblasts, value relative to DMSO” value amounted to 1.0173 in test [2] (0.5 uM); 0.8263 in test [2] (1 uM); 0.8263 in test [2] (5 uM); 0.8509 in test [2] (10 uM); 0.8530 in test [2] (20 uM); 0.8779 in test [2] (40 uM). In addition, the “Burkin Assay in Myoblasts, value relative to DMSO” value in test [3] (0.5 uM) was 1.17; in test [3] (1 uM), 1.159; in test [3] (5 uM), 0.8066; in test [3] (10 uM) it was 0.5637; in test [3] (20 uM), 0.1723; in test [3] (40 uM) it was 0.1743. Further, the “Burkin Assay in Myotubes, value relative to DMSO” value in test [4] (0.5 uM) stood at 1.11; in test [4] (1 uM) it was 1.033; in test [4] (5 uM), 0.9331; in test [4] (10 uM) it was 0.8688; in test [4] (20 uM), 0.6933; in test [4] (40 uM), 0.6295.

For the origin of these results see patent US9980943B2, “Methods of treating muscular dystrophy” (BOARD OF REGENTS OF THE NEVADA SYSTEM OF HIGHER EDUCATION, …, priority 2013, dated 2018).
